The record followed here is patent publication US20150225369A1, “DDR2 INHIBITORS FOR THE TREATMENT OF OSTEOARTHRITIS” (Merck Patent GmbH, priority 2012, published 2015).

The IC50 is the concentration at which inhibition is half-maximal.

One assay has as its target T1, His-tagged human recombinant DDR-2 kinase domain (His-TEV-DDR2 467-855 aa) (Homo sapiens, UniProt Q16832).
T1 construct: His-TEV-DDR2 467-855 aa
T1 sequence (Q16832 467-855): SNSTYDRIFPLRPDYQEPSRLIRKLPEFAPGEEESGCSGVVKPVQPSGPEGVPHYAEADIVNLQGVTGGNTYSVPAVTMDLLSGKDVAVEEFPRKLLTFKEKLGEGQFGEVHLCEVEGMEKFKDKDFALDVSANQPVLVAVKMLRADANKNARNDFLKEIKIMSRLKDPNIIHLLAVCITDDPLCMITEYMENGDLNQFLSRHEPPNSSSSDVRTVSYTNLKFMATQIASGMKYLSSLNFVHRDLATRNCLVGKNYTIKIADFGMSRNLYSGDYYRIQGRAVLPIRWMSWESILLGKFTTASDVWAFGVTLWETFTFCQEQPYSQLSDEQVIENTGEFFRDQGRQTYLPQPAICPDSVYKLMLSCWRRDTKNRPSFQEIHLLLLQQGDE
The assay can be described thus: Autophosphorylation assay for biochemical activity testing of DDR2 (HTRF). Conditions: 4 nM DDR2 kinase domain, 150 μM ATP, 150 min at 22° C. How it is done:
The autophosphorylation assay was run in two steps: the enzymatic reaction in which His-tagged DDR2 with ATP as co-substrate phosphorylates itself and the detection reaction where a time resolved FRET between XL665® labelled anti-6His antibody bound to the His-tag of the enzyme and cryptate labelled anti-phospho-Tyrosine-antibody (PT66) bound the phosphorylated Tyrosine residue of DDR2 was analysed. The autophosphorylation activity was detectable directly via the increase in HTRF signal.
The autophosphorylation assay was performed as 1536 well or 384 well HTRF® (Cisbio, Codolet, France) assay format in Greiner low volume medium binding 384-well microtiter plates and was used for high throughput screen. […] The ratio of the emission signals was determined. The full value used was the inhibitor-free reaction.
Background: Time-resolved FRET reads energy transfer from a long-lived donor to a nearby acceptor.
On to `CCn1cc(C(F)(F)F)cc(NC(=O)NCc2ccc(Oc3ccnc(C(=O)NC)c3)cc2)c1=O` [compound 11], for which the IC50 stood at 91 nM.

The same assay, now with this note: biochemical DDR2 autophosphorylation.
Turning to `Cc1ccc(NC(=O)NCc2ccc(Oc3ccncc3)cc2)cc1C` [compound 59, 1-(3,4-Dimethyl-phenyl)-3-[4-(pyridin-4-yloxy)-benzyl]-urea], the IC50 was 2100 nM.

Regarding `O=C(NCc1ccc(Oc2ccncc2)cc1)Nc1cccc(Cl)c1Cl` [compound 13], the IC50 was at least 100000 nM.

On to `O=C(NCc1ccc(Oc2ccncc2)cc1)Nc1cc(Cl)ccc1Cl` [compound 10], for which the IC50 came out at 270 nM. On the same count and under the same terms, for `O=C(NCc1ccc(Oc2ccncc2)cc1)Nc1ccc(C(F)(F)F)cc1Cl` [compound 37, 1-(2-Chloro-4-trifluoromethyl-phenyl)-3-[4-(pyridin-4-yloxy)-benzyl]-urea] the value was 2800 nM. Same read-out and setting: then `CC(C)c1ccc(NC(=O)NCc2ccc(Oc3ccncc3)cc2)cc1` [compound 49, 1-(4-Isopropyl-phenyl)-3-[4-(pyridin-4-yloxy)-benzyl]-urea], with 9600 nM; and `CNC(=O)c1cc(Oc2ccc(CNC(=O)Nc3cc(C(F)(F)F)c(Cl)cc3OCCN(C)C)cc2C)ccn1` [compound 152, 4-(4-{3-[4-Chloro-2-(2-dimethylamino-ethoxy)-5-trifluoromethyl-phenyl]-ureidomethyl}-2-methyl-phenoxy)-pyridine-2-carboxylic acid methylamide], with 25 nM; and `CNC(=O)c1cc(Oc2ccc(CNC(=O)Nc3ccccc3OC)cc2)ccn1` [compound 14], with 1900 nM.

For `CNC(=O)c1cc(Oc2ccc(CNC(=O)Nc3ccc(Cl)cc3OC)cc2)ccn1` [compound 79, 4-{4-[3-(4-Chloro-2-methoxy-phenyl)-ureidomethyl]-phenoxy}-pyridine-2-carboxylic acid methylamide], the 50% inhibitory concentration (IC50) stood at 410 nM. For the compound `CNC(=O)c1cc(Oc2ccc(CNC(=O)Nc3cc(C(F)(F)F)c(Cl)cc3OC)cc2)ccn1` [compound 67, 4-{4-[3-(4-Chloro-2-methoxy-5-trifluoromethyl-phenyl)-ureidomethyl]-phenoxy}-pyridine-2-carboxylic acid methylamide], the concentration for half-maximal inhibition (IC50) was determined as 175 nM. The same measure, in the same setting: then `O=C(NCc1ccc(Oc2ccncc2)cc1)Nc1cccc(C(F)(F)F)c1` [compound 4], with 36 nM. On the same count and under the same terms, then `CCOc1ccc(C(F)(F)F)cc1NC(=O)NCc1ccc(Oc2ccnc(C(=O)NC)c2)cc1` [compound 230, 4-{4-[3-(2-Ethoxy-5-trifluoromethyl-phenyl)-ureidomethyl]-phenoxy}-pyridine-2-carboxylic acid methylamide], with 89 nM.

Turning to `CC(=O)c1cccc(NC(=O)NCc2ccc(Oc3ccncc3)cc2)c1` [compound 7], the IC50 turned out to be 10000 nM. On the same count and under the same terms, for `CNC(=O)c1cc(Oc2ccc(CNC(=O)Nc3cc4ccccc4nc3OC)cc2)ccn1` [compound 101, 4-{4-[3-(2-Methoxy-quinolin-3-yl)-ureidomethyl]-phenoxy}-pyridine-2-carboxylic acid methylamide] the value was 190 nM. Same read-out and setting: for `CNC(=O)c1cc(Oc2ccc(CNC(=O)Nc3cc(C(F)(F)F)c(Cl)cc3OCCN3CCOCC3)cc2)ccn1` [compound 131, 4-(4-{3-[4-Chloro-2-(2-morpholin-4-yl-ethoxy)-5-trifluoromethyl-phenyl]-ureidomethyl}-phenoxy)-pyridine-2-carboxylic acid methylamide] the value was 96 nM. On the same count and under the same terms, for `O=C(NCc1ccc(Oc2ccncc2)cc1)Nc1ccccc1C(F)(F)F` [compound 26] the value was 20000 nM. As for `CNC(=O)c1cc(Oc2ccc(CNC(=O)Nc3ccccc3)cc2)ccn1` [compound 181, 4-{4-[(3-Phenyl-ureido)-methyl]-phenoxy}-pyridine-2-carboxylic acid methylamide], the IC50 is 4900 nM. The same measure, in the same setting: for `CNC(=O)c1cc(Oc2ccc(CNC(=O)Nc3cc(C)c(Cl)cc3OCCN3CCCC3)cc2)ccn1` [compound 116, 4-(4-{3-[4-Chloro-5-methyl-2-(2-pyrrolidin-1-yl-ethoxy)-phenyl]-ureidomethyl}-phenoxy)-pyridine-2-carboxylic acid methylamide] the value was 410 nM.
